According to US20120263732A1, “CD40 ANTIBODY FORMULATION AND METHODS” (PFIZER INC., priority 2003, published 2012):

How the values were obtained:
breast tumor, BT 474 = experiment: Established BT 474 breast tumors: antibody and/or cisplatin; type: in vivo, human tumor in SCID-beige mice; settings: single IP injection once tumors reached 200 mm^2; antibody 1 mg/kg, cisplatin 2.5 mg/kg; Day 84
Description: The therapeutic effects of an anti-CD40 antibody (21.4.1) in preventing the growth of human breast tumors alone and in the presence of cisplatin was examined.
SCID-beige mice were injected SC with the breast tumor, BT 474. The antibody (1 mg/kg, IP) and/or cisplatin (2.5 mg/kg, IP) were administered as a single injection once tumors reached a size of 200 mm^2. Tumor growth was measured on Day 84 after challenge.

[1] = test system: CD40(−) colon carcinoma, Lovo; experiment: CD40(−) Lovo colon carcinoma growth in SCID-beige mice; type: in vivo, human tumor in SCID-beige mice; settings: immune cells present; compared with K562 results
Description: (§1) The effects of a CD40 antibody (21.4.1) on the growth of CD40(−) tumors (e.g., erythroleukemia and colon carcinoma) were examined. In particular, K562 tumors were chosen to assess the efficacy of 21.4.1 against a CD40(−) low immunogenic (class I and II negative) tumor.
(§2) SCID-beige mice were injected SC with the CD40(−) erythroleukemic tumor, K562 (ATCC CCL-243) alone or in the presence of human peripheral blood T cells and DCs. Animals received a single IP injection of 21.4.1 either at the time of tumor injection or 5 days later using various dose levels.
The amount of 21.4.1 to cause a 50% inhibition of tumor growth was 0.005 mg/kg corresponding to a Cmax serum concentration of 0.05 μg/mL. […] The results were identical when 21.4.1 was administered on Day 0 or Day +5 relative to tumor challenge. The growth of these CD40(−) tumors was not inhibited by 21.4.1 in the absence of immune cells.

B cell lymphoma Daudi = experiment: Mortality in systemic Daudi B cell lymphoma model; type: in vivo, human tumor in SCID-beige mice; settings: Daudi IV; single IP injection; monitored for 58 days
Description: The ability of an anti-CD40 antibody according to the invention (21.4.1) to delay mortality in a CD40(+) systemic tumor model using a B cell lymphoma was assessed.
SCID-beige mice were injected IV with the B cell lymphoma Daudi (ATCC CCL-213). 21.4.1 was administered as a single injection (IP) at the time of tumor injection. Mortality was monitored for 58 days.

[2] = test system: CD40(+) Raji B cell lymphoma; experiment: CD40(+) Raji B cell lymphoma growth in SCID-beige mice; type: in vivo, human tumor in SCID-beige mice
Description: SCID-beige mice were injected subcutaneously with the CD40(+) Raji B cell lymphoma (ATCC CCL-86) (SC) followed by a single dose of 21.4.1 (IP) at the time of tumor injection. Some animals were also injected with human T cells and DC. Tumor growth was assessed on Day 21.

[3] = test system: human breast tumor, BT 474; experiment: BT 474 breast tumor growth with human T cells and DC in SCID-beige mice; type: in vivo; settings: in the presence of immune cells; single injection
Excerpt: SCID-beige mice were challenged with the human breast tumor, BT 474 (ATCC HTB-20), SC, together with human peripheral blood T cells and DC. Animals received a single dose of 21.4.1 (IP) at the time of tumor injection.

[4] = test system: CD40(−) erythroleukemic tumor, K562; experiment: CD40(−) K562 erythroleukemic tumor growth in SCID-beige mice; type: in vivo, human tumor in SCID-beige mice; settings: K562 with human T cells and DC; single IP injection; Day 21
Description: as §1, §2

| Molecule | tumor growth, single agent (breast tumor, BT 474) | inhibition of Lovo colon carcinoma growth [1] | mortality induced by systemically administered tumor cell line (B cell lymphoma Daudi) | anti-tumor activity against CD40(+) tumors when immune cells were present ([2]; Raji) | growth of BT 474 cells [3] | amount to cause a 50% inhibition of tumor growth (IC50) ([2]; Raji in the absence of immune cells, single IP dose, Day 21) [mg/kg] | amount to cause a 50% inhibition of tumor growth (IC50) [4] [mg/kg] |
| --- | --- | --- | --- | --- | --- | --- | --- |
| 3.1.1: human anti-CD40 antibody; amino acid sequences SEQ ID NOs:1-4; hybridoma deposit PTA-3600 | demonstrated | demonstrated | demonstrated | demonstrated | demonstrated | – | – |
| 3.1.1H-A78T-V88A-V97A/3.1.1L-L4M-L83V: 3.1.1 variant with three heavy chain and two light chain substitutions; SEQ ID NOs:9, 2, 10, 4 | – | – | – | – | – | < 0.01 | < 0.01 |
| N.N.[Cl][Pt][Cl] [cisplatin, cis-diaminedichloroplatinum, reference compound] | prevented tumor growth | – | – | – | – | – | – |
